In US8362000B2, “Azetidinyl diamides as monoacylglycerol lipase inhibitors” (Janssen Pharmaceutica NV, priority 2009, dated 2013):
Numbering of substitutions follows the chain as printed. Where two headings read alike, the source gives them in different places.

Tests used:
MGL = molecular target: T1, MGL (Rattus norvegicus, UniProt Q8R431); assay: 2-AG accumulation assay in rat brain homogenate; assay type: biochemical; conditions: for 2-AG accumulation, % of vehicle control at 1 µM: read-out: Rat Brain 2AG % VehCntrl (%) @ 1 μM
T1 construct: one g rat brain was homogenized using a Polytron homogenizer; from tissue; host or cells: rat brain homogenate
T1 sequence (Q8R431 1-303): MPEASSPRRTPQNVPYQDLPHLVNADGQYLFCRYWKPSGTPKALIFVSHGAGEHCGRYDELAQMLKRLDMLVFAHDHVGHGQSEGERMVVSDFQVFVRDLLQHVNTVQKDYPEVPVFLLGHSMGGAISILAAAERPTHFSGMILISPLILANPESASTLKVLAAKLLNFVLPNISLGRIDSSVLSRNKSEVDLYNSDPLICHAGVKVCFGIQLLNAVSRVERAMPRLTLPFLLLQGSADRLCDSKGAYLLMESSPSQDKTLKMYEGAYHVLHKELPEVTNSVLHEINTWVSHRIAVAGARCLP

[1] = molecular target: T2, purified wild type MGL (wt-MGLL 6H-11-313) (Homo sapiens, UniProt Q99685)
T2 sequence (Q99685 1-303): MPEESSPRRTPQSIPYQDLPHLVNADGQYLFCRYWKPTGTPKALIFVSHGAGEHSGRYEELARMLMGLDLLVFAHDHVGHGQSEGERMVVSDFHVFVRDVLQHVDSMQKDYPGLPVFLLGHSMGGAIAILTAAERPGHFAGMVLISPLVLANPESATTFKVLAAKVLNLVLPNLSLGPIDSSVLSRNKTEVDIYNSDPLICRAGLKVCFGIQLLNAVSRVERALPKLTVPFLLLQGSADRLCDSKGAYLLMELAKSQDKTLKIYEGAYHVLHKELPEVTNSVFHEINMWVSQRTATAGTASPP

mutant MGL = molecular target: T3, mutant MGL (Homo sapiens, UniProt Q99685, L169S/L176S); assay: MGL ThermoFluor assay - mutant; assay type: binding
T3 sequence (Q99685 1-303 L169S/L176S): T2 sequence (Q99685 1-303) with L169S, L176S

[2] = rat brain homogenate, compound 1 μM, 2-AG accumulation as percent of vehicle
[3] = ThermoFluor thermal stability binding assay, read-out: MGL mutant ThermoFluor Kd
[4] = ThermoFluor, compound concentration measured by qNMR, read-out: MGL mutant ThermoFluor qKd (μM) (using qNMR conc.)
[5] = ThermoFluor concentration-response, read-out: MGL mutant ThermoFluor Kd
[6] = compound concentration measured by qNMR, read-out: MGL mutant ThermoFluor qKd (using qNMR conc.)

Row | Structure (SMILES) | 2-AG accumulation, % of vehicle control at 1 µM (MGL; [2]) | IC50 [1] | Kd (mutant MGL; [5]) | also measured
1 | O=C(c1ccccc1)N1CCN(C2CN(C(=O)c3ccc4c(ccn4-c4cc(F)cc(F)c4)c3)C2)CC1 [Cpd 580] | 179% | 69 nM |  | Kd (mutant MGL; [4]): 0.118 µM
2 | COc1ccc(-n2ccc3cc(C(=O)N4CC(N5CCN(C(=O)c6ccc[nH]6)CC5)C4)ccc32)cn1 [Cpd 1176, 1-(6-Methoxypyridin-3-yl)-5-({3-[4-(1H-pyrrol-2-ylcarbonyl)piperazin-1-yl]azetidin-1-yl}carbonyl)-1H-indole] | 378% | 70 nM |  | Kd (mutant MGL; ThermoFluor, compound concentration measured by qNMR, read-out: MGL mutant ThermoFluor qKd (using qNMR conc.)): 0.161 µM
3 | O=C(c1ccccc1)N1CCN(C2CN(C(=O)c3ccc(Oc4ncc(C(F)(F)F)cc4Cl)cc3)C2)CC1 [Cpd 507] | 190% | 52 nM | 0.317 µM | 
4 | O=C(c1nn(-c2ccc(Cl)cc2Cl)c2c1CCC/C2=C\c1ccc(Cl)cc1)N1CC(N2CCN(C(=O)C(F)(F)F)CC2)C1 [Cpd 1020] |  | 63 nM |  | 2-AG accumulation, % of vehicle control at 1 µM (MGL): 135%; Kd (mutant MGL; MGL mutant ThermoFluor Kd, ThermoFluor concentration-response): 3 µM
5 | Cn1cc(I)c2ccc(C(=O)N3CC(N4CCN(C(=O)c5nccs5)CC4)C3)cc21 [Cpd 701] | 475% | 77 nM | 0.008 µM | 
6 | COc1ccc(C(=O)N2CC(N3CCN(C(=O)c4cscn4)CC3)C2)cc1-c1ccccc1 [Cpd 1265] | 192% | 1050 nM | 0.66 µM | 
7 | O=C(c1ccc(-c2ccccc2)s1)N1CC(N2CCN(C(=O)c3nccs3)CC2)C1 [Cpd 1122, 1-{1-[(5-Phenylthiophen-2-yl)carbonyl]azetidin-3-yl}-4-(1,3-thiazol-2-ylcarbonyl)piperazine] | 143% | 18 nM | 0.027 µM | 
8 | O=C(c1cc2cc(C(F)(F)F)ccc2s1)N1CCN(C2CN(C(=O)c3nccs3)C2)CC1 [Cpd 676, 1-[1-(1,3-Thiazol-2-ylcarbonyl)azetidin-3-yl]-4-{[5-(trifluoromethyl)-1-benzothiophen-2-yl]carbonyl}piperazine] | 437% | 21 nM | 0.029 µM | 
9 | Cc1cc(C(=O)N2CC(N3CCN(C(=O)c4ccns4)CC3)C2)ccc1-c1cccc(C(F)(F)F)c1 [Cpd 1114, 1-(Isothiazol-5-ylcarbonyl)-4-(1-{[2-methyl-3′-(trifluoromethyl)biphenyl-4-yl]carbonyl}azetidin-3-yl)piperazine] | 293% | 16 nM | 0.049 µM | 
10 | O=C(c1ccc(-c2cccc(C(F)(F)F)c2)cc1)N1CCN(C2CN(C(=O)c3ccc[nH]3)C2)CC1 [Cpd 1166, 1-[1-(1H-Pyrrol-2-ylcarbonyl)azetidin-3-yl]-4-{[3′-(trifluoromethyl)biphenyl-4-yl]carbonyl}piperazine] | 176% | 52 nM | 0.01 µM | 
11 | O=C(c1cscn1)N1CCN(C2CN(C(=O)c3sc4c(C(F)(F)F)c(F)ccc4c3Cl)C2)CC1 [Cpd 697] | 431% | 62 nM |  | Kd (mutant MGL; [4]): 0.024 µM
12 | O=C(c1ccc(-c2ccc(C(F)(F)F)s2)cc1)N1CCN(C2CN(C(=O)c3ccc[nH]3)C2)CC1 [Cpd 1162] | 237% | 47 nM |  | Kd (mutant MGL; [6]): 0.014 µM
13 | Cc1c(C(=O)N2CC(N3CCN(C(=O)c4nccs4)CC3)C2)cccc1-c1ccccc1 [Cpd 1234] | 226% | 356 nM | 0.394 µM | 
14 | O=C(c1ccc(OC(F)(F)F)c(Cl)c1)N1CC(N2CCN(C(=O)c3nccs3)CC2)C1 [Cpd 693] | 299% | 47 nM | 0.06 µM | 
15 | O=C(c1ccc2nc(-c3ccc(F)c(F)c3)oc2c1)N1CC(N2CCN(C(=O)c3cscn3)CC2)C1 [Cpd 1178] | 292% | 71 nM |  | Kd (mutant MGL; [4]): 0.238 µM

These reach a lower IC50 [1]. Values come first.

Row | 2-AG accumulation, % of vehicle control at 1 µM (MGL; [2]) | IC50 [1] | Kd (mutant MGL; [5]) | Structure (SMILES) | also measured
16 | 285% | < 5 nM |  | Cc1cc(C(=O)N2CC(N3CCN(C(=O)c4cscn4)CC3)C2)ccc1-c1ccc(F)c(Cl)c1 [Cpd 257, 1-{1-[(3′-Chloro-4′-fluoro-2-methylbiphenyl-4-yl)carbonyl]azetidin-3-yl}-4-(1,3-thiazol-4-ylcarbonyl)piperazine] | Kd (mutant MGL; [3]): 0.0033 µM
17 | 270% | < 5 nM | 0.009 µM | CCC(C)(C)c1ccc(C(=O)N2CC(N3CCN(C(=O)c4nccs4)CC3)C2)cc1 [Cpd 887] | 
18 | 948% | < 5 nM | 0.007 µM | CCCCCCCc1ccc(C(=O)N2CC(N3CCN(C(=O)c4nccs4)CC3)C2)cc1 [Cpd 892] | 
19 | 509% | < 5 nM | 0.005 µM | O=C(c1ccc(-c2ccccc2)c(F)c1)N1CC(N2CCN(C(=O)c3nccs3)CC2)C1 [Cpd 166, 1-{1-[(2-Fluorobiphenyl-4-yl)carbonyl]azetidin-3-yl}-4-(1,3-thiazol-2-ylcarbonyl)piperazine] | 
20 | 846% | < 5 nM | 0.005 µM | O=C(c1nccs1)N1CCN(C2CN(C(=O)c3cc4ccn(-c5ccc(F)cc5)c4cc3F)C2)CC1 [Cpd 1349] | Kd (mutant MGL; [6]): 0.006 µM
21 | 827% | < 5 nM |  | O=C(c1ccc2c(ccn2-c2cc(F)cc(F)c2)c1)N1CC(N2CCN(C(=O)c3nccs3)CC2)C1 [Cpd 1371] | Kd (mutant MGL; [4]): 0.003 µM
22 | 217% | 7.3 nM | 0.1 µM | O=C(c1ccc(-c2ccc(Br)cc2)cc1)N1CC(N2CCN(C(=O)c3cscn3)CC2)C1 [Cpd 172, 1-{1-[(4′-Bromobiphenyl-4-yl)carbonyl]azetidin-3-yl}-4-(1,3-thiazol-4-ylcarbonyl)piperazine] | 
23 | 422% | 12 nM | 0.032 µM | O=C(c1ccc2c(ccn2-c2ccc(C(F)(F)F)cc2)c1)N1CC(N2CCN(C(=O)c3ccns3)CC2)C1 [Cpd 1097, 5-({3-[4-(Isothiazol-5-ylcarbonyl)piperazin-1-yl]azetidin-1-yl}carbonyl)-1-[4-(trifluoromethyl)phenyl]-1H-indole] | 
24 | 499% | < 5 nM | 0.01 µM | O=C(c1ccc(Oc2cccc(Cl)c2)c(F)c1)N1CC(N2CCN(C(=O)c3nccs3)CC2)C1 [Cpd 875] | 2-AG accumulation, % of vehicle control at 0.1 µM (MGL; rat brain homogenate, compound 0.1 μM, 2-AG accumulation as percent of vehicle, read-out: Rat Brain 2AG % VehCntrl (%) @ 0.1 μM): 232%
25 | 389% | 7 nM |  | O=C(c1ccc2c(c1)Sc1ccccc1O2)N1CC(N2CCN(C(=O)c3cscn3)CC2)C1 [Cpd 654] | Kd (mutant MGL; [3]): 0.04 µM
26 | 994% | < 5 nM | 0.124 µM | C/C(=C\c1ccc(Cl)cc1)c1c(C)c(C(=O)N2CC(N3CCN(C(=O)c4ccc[nH]4)CC3)C2)nn1-c1ccc(Cl)cc1Cl [Cpd 1011] | 
27 | 834% | < 5 nM | 0.006 µM | O=C(c1ccc(-c2nc(-c3ccc(Cl)cc3Cl)cs2)cc1)N1CC(N2CCN(C(=O)c3nccs3)CC2)C1 [Cpd 1329] | 
28 | 543% | < 5 nM | 0.01 µM | O=C(c1ccc2c(-c3ccc(C(F)(F)F)cc3)c[nH]c2c1)N1CC(N2CCN(C(=O)c3cscn3)CC2)C1 [Cpd 1344] | 
29 | 823% | < 5 nM | 0.001 µM | O=C(c1nccs1)N1CCN(C2CN(C(=O)c3sc4ccc5ccccc5c4c3Cl)C2)CC1 [Cpd 890] | 
